How the values were obtained:
[1] = system: SH-SY5Y human neuroblastoma cells; assay: MTT proliferation and cell survival assay; type: cell-based; settings: drug alone: rapamycin 100 ng/ml, doxorubicin 1 μM, dexrazoxane 200 μM; vs control cultures; FIG. 1a
Procedure: (§1) SH-SY5Y cells were treated with three candidate agents: rapamycin (Rapa) at 100 ng/ml, doxorubicin (Doxo) at 1 μM and Dexrazoxane (DexRaz) at 200 μM and then tested one day (d1) and two days (d2) after treatment for the following 7 parameters, which are indicative of cell cycle defects and “AD-type” pathology:
(§2) In order to evaluate the effect of drug pre-treatment is protecting against the effects of oxidative stress cells were subjected to oxidative stress (by treatment with 120 μM H2O2) in the absence of drug treatment and after treatment with rapamycin or dexrazoxane, and then tested for the same parameters. Results are shown in FIGS. 1-7, panel b (FIG. 1b, FIG. 2b, FIG. 3b, FIG. 4b, FIG. 5b, FIG. 6b, FIG. 7b).
Finally, cells were treated with doxorubicin after treatment with rapamycin or dexrazoxane and then tested for the same parameters, to evaluate the effects of combined treatment. […]
Cell survival and proliferation was assessed by MTT proliferation and cell survival assay, performed according to the manufacturers recommendations (Chemicon International, Ltd., Hampshire, UK) in the final 4 hours of the 24 hours period. The results of the assay were evaluated using an Opsys MR ELISA plate reader (Dynex Technologies, Middlesex, UK) at 570 nm with a reference wavelength of 630 nm.

[2] = system: SH-SY5Y human neuroblastoma cells; assay: Apoptosis by flow cytometry (sub-G1 DNA content); type: cell-based; settings: drug alone: rapamycin 100 ng/ml, doxorubicin 1 μM, dexrazoxane 200 μM, FIG. 2a
Procedure: as §1, §2
(§3) Finally, cells were treated with doxorubicin after treatment with rapamycin or dexrazoxane and then tested for the same parameters, to evaluate the effects of combined treatment. Results are shown in FIGS. 1-7, panel c (FIG. 1c, FIG. 2c, FIG. 3c, FIG. 4c, FIG. 5c, FIG. 6c, FIG. 7c).
(§4) SH-SY5Y human neuroblastoma cells were cultured in Dulbecco's modified Eagle's medium (DMEM)/F12 supplemented with 10% fetal calf serum (FCS, PAA Laboratories, Austria), 2 mM L-glutamine, 100 IU/ml penicillin and 100 μg/ml streptomycin (Gibco) in a humidified incubator at 37° C. and 5% CO2.
(§5) After 24 h incubation the culture medium was replaced by DMEM/F12 with 10% FCS containing various concentrations of drug. The cells were incubated for another 24 or 48 hours.
(§6) The cell cultures were repeated in identical conditions in order to analyze cell cycle kinetics by flow cytometry and to study protein expression.
(§7) The cultures prepared for flow cytometry were harvested after a short incubation with Trypsin EDTA (Sigma) in PBS. Cells were fixed in 70% ice-cold alcohol. Prior to staining with propidium iodide (PI) the samples were washed twice in PBS containing Triton-X at 0.1%. On flow cytometry the ratio of G1 and G2 cells was measured. Cells with sub-G1 DNA content were regarded as the apoptotic fraction.

[3] = system: SH-SY5Y human neuroblastoma cells; assay: Relative lengthening of the G1 phase of the cell cycle by flow cytometry; type: cell-based; settings: drug alone, FIG. 3a
Procedure: as §1, §2
Finally, cells were treated with doxorubicin after treatment with rapamycin or dexrazoxane and then tested for the same parameters, to evaluate the effects of combined treatment. Results are shown in FIGS. 1-7, panel c (FIG. 1c, FIG. 2c, FIG. 3c, FIG. 4c, FIG. 5c, FIG. 6c, FIG. 7c). […]
The cultures prepared for flow cytometry were harvested after a short incubation with Trypsin EDTA (Sigma) in PBS. […] On flow cytometry the ratio of G1 and G2 cells was measured. […]

[4] = system: SH-SY5Y human neuroblastoma cells; assay: Relative lengthening of the G2 phase of the cell cycle by flow cytometry; type: cell-based
Procedure: as §1, §2, §3, §4, §5, §6, §7

[5] = system: amyloid precursor protein (APP); assay: ELISA of APP expression in SH-SY5Y cell lysates; type: cell-based, human; settings: for Expression of APP: drug alone, FIG. 5a
Procedure: as §1, §2, §3, §4, §5, §6
(§8) The cultures prepared for protein expression assays were harvested after a short wash with cold PBS by scraping. The collected cells were lysed in 150 μl of lysis buffer containing 50 mM Tris-HCl (pH 7.4), 100 mM NaCl, 1 mM EDTA, 0.5% (v/v) Nonidet P-40, 50 mM NaF, 0.2 mM Na3VO4, 20 μg/ml phenylmethylsulfonyl fluoride, and 5 μg/ml leupeptin, and incubated on ice for 30 min. The cell lysate was centrifuged at 14,000 g for 20 min at 4° C. to remove insoluble pellets. Protein concentration was determined by the Bradford assay. ELISA assays were performed using a panel of antibodies. Secondary antibodies (anti rabbit or anti mouse as appropriate) conjugated to horseradish peroxidase were used.

[6] = system: AD-type hyperphosphorylated tau protein; assay: ELISA of AD-type hyperphosphorylated tau (AT8) in SH-SY5Y cell lysates; type: cell-based, human; settings: for Expression of AD-type hyperphosphorylated tau: drug alone, FIG. 6a
Procedure: as §1, §2, §3, §4, §5, §6, §8

[7] = system: AD-type paired helical filament (PHF) tau protein; assay: ELISA of AD-type PHF tau (Tau2) in SH-SY5Y cell lysates; type: cell-based, human; settings: for Expression of AD-type PHF tau: drug alone, FIG. 7a
Procedure: as §1, §2, §3, §4, §5, §6, §8

AD-related proteins = assay: ELISA of AD-related proteins overall (APP, phospho tau, PHF tau) in SH-SY5Y cell lysates; type: cell-based, human
Procedure: as §1, §2, §3, §4, §5, §6
The cultures prepared for protein expression assays were harvested after a short wash with cold PBS by scraping. The collected cells were lysed in 150 μl of lysis buffer containing 50 mM Tris-HCl (pH 7.4), 100 mM NaCl, 1 mM EDTA, 0.5% (v/v) Nonidet P-40, 50 mM NaF, 0.2 mM Na3VO4, 20 μg/ml phenylmethylsulfonyl fluoride, and 5 μg/ml leupeptin, and incubated on ice for 30 min. […] Protein concentration was determined by the Bradford assay. […]

[8] = drug alone, after 1 day (day 2), FIG. 4a

COc1cccc2c1C(=O)c1c(O)c3c(c(O)c1C2=O)C[C@@](O)(C(=O)CO)C[C@@H]3O[C@H]1C[C@H](N)[C@H](O)[C@H](C)O1 [doxorubicin]
Cell survival and proliferation (cell numbers) [1]: reduced cell numbers
Apoptosis [2]: seems to be protective against apoptotic cell death
Apoptosis ([2]; listed as Doxorubicin): appeared to be protective against apoptosis
Length of the G1 phase of the cell cycle ([3]; after 1 day (day 2)): effect on G1 was reversed after 1 day
Length of the G2 phase of the cell cycle ([4]; drug alone, FIG. 4a): lengthening of the G2 phase
Length of the G2 phase of the cell cycle ([4]; drug alone, FIG. 4a, listed as Doxorubicin): lengthening of the G2 phase of the cell cycle
Length of the G2 phase of the cell cycle [4, 8]: G2 inhibitory effect diminished
Expression of APP [5]: elevated expression of APP
Expression of AD-type hyperphosphorylated tau [6]: reduction of phospho-tau
Expression of AD-type PHF tau [7]: elevated expression
AD-related protein expression (overall) (AD-related proteins; drug alone): elevation of AD-related protein expression

C[C@@H](CN1CC(=O)NC(=O)C1)N1CC(=O)NC(=O)C1 [dexrazoxane, Dexrazoxane]
Cell survival and proliferation (cell numbers) [1]: reduced cell numbers only after 2 days of treatment
Apoptosis [2]: did not seem to protect cells against apoptotic cell death as efficiently as rapamycin did
Apoptosis ([2]; listed as Dexrazoxane): did not confer protection against cell death on its own
Length of the G1 phase of the cell cycle [3]: acceleration of the G1 phase of the cell cycle
Length of the G2 phase of the cell cycle [4, 8]: massive G2 lengthening on day 2
Length of the G2 phase of the cell cycle ([4]; drug alone, day one, FIG. 4a): little change in G2 time on day one
Length of the G2 phase of the cell cycle ([4]; drug pre-treatment followed by doxorubicin, FIG. 4c): increased the G2 lengthening effect of doxorubicin
Expression of APP ([5]; day two): by day two all three proteins were reduced in the cell lysates
Expression of APP ([5]; first day): increased the expression of all three AD-related proteins on the first day
APP production ([5]; drug pre-treatment followed by doxorubicin, FIG. 5c): reduction of the APP and PHF-tau production
Expression of AD-type hyperphosphorylated tau ([6]; day two): by day two all three proteins were reduced in the cell lysates
Expression of AD-type hyperphosphorylated tau ([6]; first day): increased the expression of all three AD-related proteins on the first day
Phospho-tau production ([6]; drug pre-treatment followed by doxorubicin, FIG. 6c): did not significantly effect the phospho-tau production
Expression of AD-type PHF tau ([7]; day two): by day two all three proteins were reduced in the cell lysates
Expression of AD-type PHF tau ([7]; first day): increased the expression of all three AD-related proteins on the first day
PHF tau formation ([7]; drug pre-treatment followed by doxorubicin, FIG. 7c): reduction of the APP and PHF-tau production
AD-related protein expression (overall) (AD-related proteins; drug alone): effectively reduced AD-related protein expression after two days in culture
AD-related protein expression (overall) (AD-related proteins; drug pre-treatment followed by doxorubicin, summary statement): protective effects against AD-related protein expression became more robust

Source: patent US8921321B2, “Therapeutic strategies for prevention and treatment of alzheimer's disease” (Isis Innovation Ltd., priority 2001, dated 2014)
